We go through 5 compounds from patent US12648904B2, “Porous nanocomposite medical implant device” (Lynthera Corporation, priority 2020, dated 2026).

A short description of this data set: Fatty acid loading into contact lenses, by weighing the dry lens before and after soaking. In kind it is physicochemical. To be noted: for Fatty acid loading / Fatty acid by weight of the dried lens: ACUVUE TruEye lens; for Fatty acid loading: soaking concentration 20 mg/mL fatty acid in ethanol; for Fatty acid by weight of the dried lens: 7.5 mg/mL fatty acid in ethanol, 24 hours at 23° C. How it is done: Two commercial silicone hydrogel contact lenses were tested: ACUVUE TruEye® (46% Water+54% Narafilcon A) and ACUVUE Oasys® (38% Water+62% Senofilcon A). TruEye® is a daily disposable contact lens while Oasys® is an approved contact lens for extended wear. The lenses were rinsed with deionized water and then air-dried before being soaked in 4 mL of 19 mg/mL, 27 mg/mL or 40 mg/mL of oleic acid in ethanol. The soaking duration was 24 hours at room temperature. Following the loading step, the contact lenses were taken out and excess fatty acid-ethanol solution was blotted out from the lens surface. Lenses were washed in deionized water for 1 hour and subsequently air-dried overnight.
The loading amount of OA was determined by weighing the dry lens before and after the fatty acid loading period as shown in FIG. 4. Oleic acid loading has a linear dependency on the concentration of the loading solutions. Furthermore, Oasys® has higher affinity for oleic acid than TruEye® at concentrations between […] and 27 mg/mL. For higher concentrations, the affinity for oleic acid is equivalent for both contact lenses. Therefore, the loading of Oleic acid into lens can be adjusted by this correlation.
1-day ACUVUE Moist® (58% Water+42% Etafi Icon A) are conventional hydrogel commercial lenses that are mostly composed of poly-2-hydroxyethyl methacrylate (pHEMA). Lenses were rinsed with PBS and then air-dried before use. Dry lenses were soaked in 4 mL of 100 mg/mL of oleic acid in a mixture of ethanol and deionized water (75/25 ethanol/water). […] Following the loading step, the contact lenses were taken out and excess fatty acid-ethanol solution was blotted out from the lens surface. Lenses were washed in PBS for 1 hour and then were air-dried overnight. The loading amount of OA was determined by weighing the dry lens before and after the fatty acid loading period.
ACUVUE TruEye® (diopter −3.5) contact lenses were rinsed with deionized. water and then air-dried overnight before use. One batch of contact lenses were soaked in 4 mL of 7.5 mg,/mL of myristic acid in ethanol. Another batch of contact lens were soaked in 4 mL of 7.5 mg/mL of stearic acid in ethanol. A third batch of lenses was used as a control (no fatty acid loading). The soaking duration was 24 hours at 23° C. Following the loading step, the contact lenses were taken out and excess fatty acid-ethanol solution was blotted out from the lens surface. Lenses were washed in deionized water for 1 hour and subsequently air-dried overnight. All contact lenses were optically transparent in the hydrated state. The wt % of fatty add retain by the contact lens was determined by recording the increase in the weight of the dried lens after the soaking and drying procedure. For both stearic and myristic acid, approximately 1.5% ±0.5% by weight of the dried lens was composed of the fatty acid.

Structures are written as SMILES.

As to `CCCCC/C=C\C/C=C\CCCCCCCC(=O)O` [linoleic acid], the Fatty acid loading turned out to be 6.2 wt %.

For the compound `CCCCCCCCCCCCCC(=O)O` [myristic acid, Myristic Acid (Tetradecanoic Acid)], the “Fatty acid by weight of the dried lens” value is “approximately 1.5%”.

The compound `CCCCCCCC/C=C\CCCCCCCC(=O)O` [oleic acid] displayed a Fatty acid loading of 6.1 wt %. Moreover, the “Maximum oleic acid loading” value (1-day ACUVUE Moist lens, 100 to 500 mg/mL oleic acid in 75/25 ethanol/water) is given as 2.9 wt. %.

`CCCCCCCCCCCCCCCCCC(=O)O` [stearic acid, Stearic Acid (Octadecanoic Acid)]: the “Fatty acid by weight of the dried lens” value is recorded as “approximately 1.5%”.

The compound `CC/C=C\C/C=C\C/C=C\CCCCCCCC(=O)O` [α-linolenic acid] yielded a Fatty acid loading of 6.0 wt %.
